How the values were obtained:
[1] = tested on: DLD1 human colon carcinoma cells; test: Cell proliferation (colony formation) assay, DLD1; type: cell-based; details: DLD-1, cancer cell line DLD1, 4 h exposure, colonies scored after 10-15 days, compounds added in micromolar concentrations
Experimental: (§1) Cell proliferation assays were performed as described previously (Müller et al., (1996) J. Med. Chem. 39: 3132-3138; Müller et al., (1994) J. Med. Chem. 37: 1660-1669). More specifically, exponentially growing cells were seeded at 1,000 cells per well in six-well plates and allowed to attach for 24 h. […] Control wells were treated with equivalent volumes of DMSO. After 4 h, the supernatant was removed and fresh medium was added. Cultures were observed daily for 10-15 days and then were fixed and stained. Colonies of greater than 30 cells were scored as survivors. The assays of the present invention as shown in Table 2 and methods of measuring induction of E2F activity and elevation of E2F levels can be carried out following the descriptions found in Li et al., (2003) Proc Natl Acad Sci USA. 100(5): 2674-8 and U.S. Patent Application Publication No.2002/0169135, both incorporated herein by reference in their entireties.

[2] = tested on: MCF-7 human breast carcinoma cells; test: Cell proliferation (colony formation) assay, MCF7; type: cell-based; details: cancer cell line MCF7, 4 h exposure, colonies scored after 10-15 days, compounds added in micromolar concentrations
Experimental: as §1

[3] = tested on: HT-29 human colon carcinoma cells; test: Cell proliferation (colony formation) assay, HT-29; type: cell-based; details: cancer cell line HT-29, 4 h exposure, colonies scored after 10-15 days, compounds added in micromolar concentrations
Experimental: as §1

[4] = tested on: MIA PACA-2 human pancreatic carcinoma cells; test: Cell proliferation (colony formation) assay, PaCa-2; type: cell-based; details: cancer cell line PaCa-2, 4 h exposure, colonies scored after 10-15 days, compounds added in micromolar concentrations, read-out: Average IC50 Pancr. PaCa-2
Experimental: as §1

[5] = tested on: A549 human lung carcinoma cells; test: Cell proliferation (colony formation) assay, A549; type: cell-based; details: cancer cell line A549, 4 h exposure, colonies scored after 10-15 days, compounds added in micromolar concentrations
Experimental: as §1, with “The assays of the present invention as shown in Table 2 and methods of measuring induction of E2F activity and elevation of E2F levels can be carried out following the descriptions found in Li et al., (2003) Proc Natl Acad Sci USA.” left out

[6] = tested on: MCF 10A normal breast epithelial cells; test: Cell proliferation (colony formation) assay, MCF10A normal cells; type: cell-based; details: Homo sapiens, normal cell line MCF10A, 4 h exposure, colonies scored after 10-15 days, compounds added in micromolar concentrations, read-out: Average IC50 Normal Cell Lines Breast MCF10A
Experimental: as §1

[7] = tested on: NCM 460 normal colonic epithelial cells; test: Cell proliferation (colony formation) assay, NCM460 normal cells; type: cell-based; details: Homo sapiens; normal cell line NCM460; 4 h exposure, colonies scored after 10-15 days; compounds added in micromolar concentrations; read-out: Average IC50 Normal Cell Lines Colon NCM460
Experimental: as §1

[8] = tested on: SW-480 human colon carcinoma cells; test: Cell proliferation (colony formation) assay, SW480; type: cell-based; details: cancer cell line SW480, 4 h exposure, colonies scored after 10-15 days, compounds added in micromolar concentrations
Experimental: as §1

[9] = tested on: normal fresh or proliferating human PBMC; details: cited from earlier work
human cancer cell lines = details: single agent; typical range; read-out: antineoplastic activity against human cancer cell lines (IC50); cited from earlier work
[10] = tested on: E2F family of transcription factors; details: cancer cells versus normal cells; cited from earlier work
[11] = tested on: cancer cell lines and normal cells; details: Li et al. 2003; cited from earlier work

SMILES | IC50 [1] | IC50 [2] | IC50 [3] | IC50 [4] | IC50 [5] | IC50 [6] | IC50 [7] | IC50 [8] | cytotoxic effects on normal human PBMC [9] | IC50 (human cancer cell lines) | induction of sustained E2F activity in nuclei of cancer cells but not in normal cells [10] | induction of apoptosis in cancer cell lines versus normal cells [11]
CC1(C)CCC2=C(S1)c1ccccc1C(=O)C2=O [Compound 1, 3,4-dihydro-2,2-dimethyl-2H-naphtho[1,2-b]thiopyran-5,6-dione] | 2 µM | 1 µM | 1.8 µM | 1.5 µM | 1.7 µM | 6.7 µM | 7.5 µM | 1.5 µM | – | – | – | –
CC1SC2=C(C(=O)C(=O)c3ccccc32)C1(c1ccccc1)c1ccccc1 (stereo not drawn) [Compound 5, 2-methyl-3,3-diphenyl-2H-3H-naphtho[1,2-b]thiophene4,5-dione] | – | – | 1.7 µM | 1.3 µM | 2.3 µM | 5.9 µM | 7.8 µM | – | – | – | – | –
CC1SC2=C(C(=O)C(=O)c3ccccc32)C1(C)C (stereo not drawn) [Compound 3, 2,3,3-trimethyl-2H-3H-naphtho[1,2-b]thiophene-4,5-dione] | 0.9 µM | 1 µM | 1.5 µM | – | – | – | 2 µM | 0.9 µM | – | – | – | –
CC1SC2=C(OC1(C)C)C(=O)C(=O)c1ccccc12 (stereo not drawn) [Compound 12, 2,2,3-trimethyl-11,12-dehydro-naphtho[1,2-b]thioxane-9,10-dione] | – | – | 4 µM | 2.2 µM | 3.1 µM | 14.1 µM | 13.1 µM | – | – | – | – | –
CC1(C)CCC2=C(S1)C(=O)c1ccccc1C2=O [Compound 2, 3,4-dihydro-2,2-dimethyl-2H-naphtho[2,3-b]thiopyran-5,10-dione] | 32 µM | 16 µM | – | – | – | – | – | 32 µM | – | – | – | –
CC1OC2=C(SC1C)c1ccccc1C(=O)C2=O (stereo not drawn) [Compound 10, 2,3-dimethyl-11,12-dehydro-naphtho[1,2-b]thioxane-9,10-dione] | – | – | 2 µM | 2 µM | 1.8 µM | 8 µM | 6.1 µM | 1 µM | – | – | – | –
CC1(C)CCSC2=C1C(=O)C(=O)c1ccccc12 [Compound 6, 3,4-dihydro4,4-dimethyl-2H-naphtho[1,2-b]thiopyran-5,6-dione] | – | – | 1.6 µM | 1.2 µM | 1.6 µM | 6.3 µM | 6 µM | – | – | – | – | –
CC1CSC2=C(O1)C(=O)C(=O)c1ccccc12 (stereo not drawn) [Compound 9, 2-methyl-11,12-dehydro-naphtho[1,2-b]thioxane-9,10-dione] | – | – | 1.5 µM | 1.4 µM | 2 µM | 6.4 µM | 4.9 µM | 1.5 µM | – | – | – | –
CC1OC2=C(C(=O)C(=O)c3ccccc32)C1(C)C (stereo not drawn) [Dunnione, 2,3,3-trimethyl-2,3,4,5-tetrahydro-naphtho(2,3-b)dihydrofuran-6,7-dione, reference compound] | 2.8 µM | 1 µM | – | – | – | – | 4 µM | 2.8 µM | – | – | – | –
CC1(C)CCC2=C(O1)c1ccccc1C(=O)C2=O [β-Lapachone, 3,4-dihydro-2,2-dimethyl-2H-naphtho[1,2-b]pyran-5,6-dione, reference compound] | 3.6 µM | 1 µM | 2.1 µM | 1.6 µM | – | 5.8 µM | 8.1 µM | 3.3 µM | No cytotoxic effects | 1 to 10 µM | induces sustained E2F activity | induces apoptosis only in cancer cell lines and not in normal cells
O=C1C(=O)c2ccccc2C2=C1C(c1ccccc1)CCS2 (stereo not drawn) [Compound 7, 3,4-dihydro-4-phenyl-2H-naphtho[1,2-b]thiopyran-5,6-dione] | – | – | 2.2 µM | 2.3 µM | 2 µM | 7 µM | 8.8 µM | – | – | – | – | –
